In patent publication US6825170B2, “6-O-acyl ketolide antibacterials” (Ortho-McNeil Pharmaceutical, Inc., priority 2001, dated 2004):
In brackets after ≈: the same amount, converted by molar mass.

Legend:
Assay in all cases: MIC, microdilution broth method (NCCLS)
Type in all cases: cell-based
Details in all cases: 35° C., 16-20 hours
E. faecalis ATCC29212 = tested on: E. faecalis ATCC29212
In short: (§1)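 Broth microdilution per NCCLS M7-A4 used two-fold compound dilutions in cation-adjusted Mueller-Hinton broth, inoculated at about 5×10^4 CFU/well. Trays were incubated at 35 °C for 16-20 h, and growth was compared with compound-free growth-control wells.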

H. influenzae ATCC49247 = tested on: H. influenzae ATCC49247
In short: as §1

S. aureus ATCC29213 = tested on: S. aureus ATCC29213
In short: as §1

S. pneumoniae ATCC49619 = tested on: S. pneumoniae ATCC49619
In short: as §1

E. coli OC2605 = tested on: E. coli OC2605
In short: as §1

MIC (C: E. faecalis ATCC29212) (E. faecalis ATCC29212) [µg/mL] | MIC (E: H. influenzae ATCC49247) (H. influenzae ATCC49247) [µg/mL] | MIC (B: S. aureus ATCC29213) (S. aureus ATCC29213) [µg/mL] | MIC (D: S. pneumoniae ATCC49619) (S. pneumoniae ATCC49619) [µg/mL] | MIC (A: E. coli OC2605) (E. coli OC2605) [µg/mL] | MIC (E. faecalis ATCC29212; Enterococcus faecalis) [µg/mL] | MIC (H. influenzae ATCC49247; Haemophilus influenzae, read-out: MIC (E: H. influenzae ATCC49247)) [µg/mL] | MIC (S. aureus ATCC29213; Staphylococcus aureus, read-out: MIC (B: S. aureus ATCC29213)) [µg/mL] | MIC (S. pneumoniae ATCC49619; Streptococcus pneumoniae, read-out: MIC (D: S. pneumoniae ATCC49619)) [µg/mL] | MIC (E. coli OC2605; Escherichia coli) [µg/mL] | SMILES
0.12 (≈ 0.138 µM) | 8 (≈ 9.23 µM) | 0.5 (≈ 0.577 µM) | 0.03 (≈ 0.0346 µM) | >16 |  |  |  |  |  | CC[C@H]1OC(=O)[C@H](C)C(=O)[C@H](C)[C@@H](O[C@@H]2O[C@H](C)C[C@H](N(C)C)[C@H]2O)[C@](C)(OC(=O)NN(CC)CCc2ccc(-c3ncccn3)cc2)C[C@@H](C)C(=O)[C@H](C)[C@H]2NC(=O)O[C@@]21C [Compound 804]
0.25 (≈ 0.294 µM) | 2 (≈ 2.35 µM) | 0.25 (≈ 0.294 µM) | 0.06 (≈ 0.0705 µM) | 16 (≈ 18.8 µM) |  |  |  |  |  | CC[C@H]1OC(=O)[C@H](C)C(=O)[C@H](C)[C@@H](O[C@@H]2O[C@H](C)C[C@H](N(C)C)[C@H]2O)[C@](C)(OC(=O)NNC/C=C/c2ccc(-c3ncccn3)cc2)C[C@@H](C)C(=O)[C@H](C)[C@H]2NC(=O)O[C@@]21C [Compound 805]
1 (≈ 0.957 µM) | 16 (≈ 15.3 µM) | 2 (≈ 1.91 µM) | 0.12 (≈ 0.115 µM) | >16 |  |  |  |  |  | CC[C@H]1OC(=O)[C@H](C)C(=O)[C@H](C)[C@@H](O[C@@H]2O[C@H](C)C[C@H](N(C)C)[C@H]2O)[C@](C)(OC(=O)NN(C/C=C/c2ccc(-c3ncccn3)cc2)C/C=C/c2ccc(-c3ncccn3)cc2)C[C@@H](C)C(=O)[C@H](C)[C@H]2NC(=O)O[C@@]21C [Compound 806]
 |  |  |  |  | 1 (≈ 1.25 µM) | 4 (≈ 4.99 µM) | 2 (≈ 2.5 µM) | 0.12 (≈ 0.15 µM) | > 16 | CC[C@H]1OC(=O)[C@H](C)C(=O)[C@H](C)[C@@H](O[C@@H]2O[C@H](C)C[C@H](N(C)C)[C@H]2O)[C@](C)(OC(=O)NN2CCC(c3ccccc3)CC2)C[C@@H](C)C(=O)[C@H](C)[C@H]2NC(=O)O[C@@]21C [Compound 807]

Further lines, the compound ahead of its results:

SMILES | MIC (C: E. faecalis ATCC29212) (E. faecalis ATCC29212) [µg/mL] | MIC (E: H. influenzae ATCC49247) (H. influenzae ATCC49247) [µg/mL] | MIC (B: S. aureus ATCC29213) (S. aureus ATCC29213) [µg/mL] | MIC (D: S. pneumoniae ATCC49619) (S. pneumoniae ATCC49619) [µg/mL] | MIC (A: E. coli OC2605) (E. coli OC2605) [µg/mL] | MIC (E. faecalis ATCC29212; Enterococcus faecalis) [µg/mL] | MIC (H. influenzae ATCC49247; Haemophilus influenzae, read-out: MIC (E: H. influenzae ATCC49247)) [µg/mL] | MIC (S. aureus ATCC29213; Staphylococcus aureus, read-out: MIC (B: S. aureus ATCC29213)) [µg/mL] | MIC (S. pneumoniae ATCC49619; Streptococcus pneumoniae, read-out: MIC (D: S. pneumoniae ATCC49619)) [µg/mL] | MIC (E. coli OC2605; Escherichia coli) [µg/mL]
CC[C@H]1OC(=O)[C@H](C)C(=O)[C@H](C)[C@@H](O[C@@H]2O[C@H](C)C[C@H](N(C)C)[C@H]2O)[C@](C)(OC(=O)NNCc2ccc(-c3ncccn3)cc2)C[C@@H](C)C(=O)[C@H](C)[C@H]2NC(=O)O[C@@]21C [Compound 676] | 0.12 (≈ 0.145 µM) | 4 (≈ 4.85 µM) | 0.25 (≈ 0.303 µM) | 0.03 (≈ 0.0364 µM) | 8 (≈ 9.7 µM) |  |  |  |  | 
CC[C@H]1OC(=O)[C@H](C)C(=O)[C@H](C)[C@@H](O[C@@H]2O[C@H](C)C[C@H](N(C)C)[C@H]2O)[C@](C)(OC(=O)NN(C)C/C=C/c2ccc(-c3ncccn3)cc2)C[C@@H](C)C(=O)[C@H](C)[C@H]2NC(=O)O[C@@]21C [Compound 744] | 0.25 (≈ 0.289 µM) | 8 (≈ 9.25 µM) | 0.25 (≈ 0.289 µM) | 0.03 (≈ 0.0347 µM) | >16 |  |  |  |  | 
CC[C@H]1OC(=O)[C@H](C)C(=O)[C@H](C)[C@@H](O[C@@H]2O[C@H](C)C[C@H](N(C)C)[C@H]2O)[C@](C)(OC(=O)NN(C)Cc2ccc(-c3ncccn3)cc2)C[C@@H](C)C(=O)[C@H](C)[C@H]2NC(=O)O[C@@]21C [Compound 774] | 0.25 (≈ 0.298 µM) | 4 (≈ 4.77 µM) | 2 (≈ 2.38 µM) | 0.06 (≈ 0.0715 µM) | >16 |  |  |  |  | 
CC[C@H]1OC(=O)[C@H](C)C(=O)[C@H](C)[C@@H](O[C@@H]2O[C@H](C)C[C@H](N(C)C)[C@H]2O)[C@](C)(OC(=O)NN(C)CCc2ccc(-c3ncccn3)cc2)C[C@@H](C)C(=O)[C@H](C)[C@H]2NC(=O)O[C@@]21C [Compound 803] | 0.12 (≈ 0.141 µM) | 4 (≈ 4.69 µM) | 0.25 (≈ 0.293 µM) | 0.03 (≈ 0.0352 µM) | >16 |  |  |  |  | 
